Source: PubChem BioAssay (NCI)
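Assay format: 96-well plates, 48-hour exposure. Definition used: TGI = concentration required for complete inhibition of growth.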

Legend:
Experiment in all cases: NCI anticancer screen, dose series, 48 h
[1] = tested on: HCT-15 colon
[2] = tested on: M14 melanoma
[3] = tested on: MCF7 breast
[4] = tested on: HOP-62 NSCLC
[5] = tested on: RPMI-8226 leukemia
[6] = tested on: 786-0 renal
[7] = tested on: CCRF-CEM leukemia
[8] = tested on: OVCAR-8 ovarian
[9] = tested on: UO-31 renal
[10] = tested on: SR leukemia
[11] = tested on: SK-MEL-2 melanoma
[12] = tested on: SK-MEL-5 melanoma
[13] = tested on: NCI-H522 lung
[14] = tested on: MALME-3M melanoma
[15] = tested on: PC-3 prostate
[16] = tested on: BT-549 breast
[17] = tested on: LOX IMVI melanoma
[18] = tested on: UACC-257 melanoma
[19] = tested on: MDA-MB-231 breast
[20] = tested on: A549 NSCLC
[21] = tested on: HCT-116 colon
[22] = tested on: NCI/ADR-RES ovarian
[23] = tested on: KM12 colon
[24] = tested on: SF-295 CNS
[25] = tested on: SW-620 colon
[26] = tested on: HL-60(TB) leukemia
[27] = tested on: OVCAR-4 ovarian
[28] = tested on: OVCAR-5 ovarian
[29] = tested on: EKVX NSCLC
[30] = tested on: SNB-19 CNS
[31] = tested on: SN12C renal
[32] = tested on: CAKI-1 renal
[33] = tested on: IGROV1 ovarian
[34] = tested on: NCI-H23 lung
[35] = tested on: T-47D breast
[36] = tested on: NCI-H460 lung
[37] = tested on: MOLT-4 leukemia
[38] = tested on: COLO 205 colon
[39] = tested on: SF-268 CNS
[40] = tested on: K-562 leukemia
[41] = tested on: TK-10 renal
[42] = tested on: SF-539 CNS
[43] = tested on: SK-OV-3 ovarian
[44] = tested on: HT29 colon
[45] = tested on: DU-145 prostate
[46] = tested on: SNB-75 CNS
[47] = tested on: SK-MEL-28 melanoma
[48] = tested on: HS 578T breast
[49] = tested on: ACHN renal
[50] = tested on: MDA-N
[51] = tested on: NCI-H226 lung
[52] = tested on: UACC-62 melanoma
[53] = tested on: HCC-2998 colon
[54] = tested on: RXF 393 renal
[55] = tested on: U251 CNS

Measured: TGI

COC(=O)C1CC2(CCC1=O)Cc1ccccc1C2=O (stereo not given)
> 100 µM: all assays above
